The record followed here is paper PMC3310380 (Journal of Biomolecular Screening, 2010).

Data set [1] has as its system EBV genome copy number in Raji Burkitt lymphoma cells. Nature of the data set: EBV genome maintenance assay in Raji cells. As to conditions: six days, 50 μM. Type of data set: cell-based, Epstein-Barr virus.
The target in another data set is EBNA1 DBD (Epstein-Barr virus, UniProt P03211 459-607). Nature of the data set: EMSA. Background: In EMSA bound probe runs differently from free probe, usually more slowly.
EBNA1 DBD, sequence (P03211 459-607): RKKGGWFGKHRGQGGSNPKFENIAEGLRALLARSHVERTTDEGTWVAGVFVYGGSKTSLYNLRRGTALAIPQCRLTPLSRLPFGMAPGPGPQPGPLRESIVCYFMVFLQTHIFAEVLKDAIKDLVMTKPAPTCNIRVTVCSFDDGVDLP

As to `NC(=O)NO` [HU, hydroxyurea], the “EBV DNA copy number, of its original content relative to cellular actin” value in data set [1] is given as ~ 48%.

B1: Probe A (dsDNA)
DNA 1: GGGTAGCATATGCTACCC
DNA 2: GGGTAGCATATGCTACCC
On to B1, for which, in the data set with EBNA1 DBD, the binding result is “binds”.
